Seven compounds from US9751865B2, “Dihydro-hydantoin derivatives with herbicidal activity” (SYNGENTA PARTICIPATIONS AG, priority 2013, dated 2017) can be followed below.

Holding throughout (assay type): in vivo
Assay [1] relates to Abutilon theophrasti. Briefly: Post-emergence herbicidal activity, ABUTH. Details: key: 5=total damage to plant; 0=no damage to plant. Particulars: application post-emergence, 1000 g/Ha, evaluated after 13 days, scale 0-5. The protocol: (§1) Seeds of a variety of test species were sown in standard soil in pots. After 8 days cultivation (post-emergence) under controlled conditions in a glasshouse (at 24/16° C., day/night; 14 hours light; 65% humidity), the plants were sprayed with an aqueous spray solution derived from the formulation of the technical active ingredient in acetone/water (50:50) solution containing 0.5% Tween 20 (polyoxyethelyene sorbitan monolaurate, CAS RN 9005-64-5). The test plants were then grown in a glasshouse under controlled conditions (at 24/16° C., day/night; 14 hours light; 65% humidity) and watered twice daily. After 13 days, the test was evaluated (5=total damage to plant; 0=no damage to plant).

For assay [2], the system named is Echinochloa crus-galli. The assay can be described thus: Pre-emergence herbicidal activity, ECHCG. Details: key: 5=total damage to plant; 0=no damage to plant. Particulars: application pre-emergence, 1000 g/Ha, evaluated after 13 days, scale 0-5. The protocol: as §1, with “After” for “After 8 days”, “for one day (pre-emergence)” for “(post-emergence)”
Assay [3] has as its system Alopecurus myosuroides. The assay can be described thus: Post-emergence herbicidal activity, ALOMY. Details: key: 5=total damage to plant; 0=no damage to plant. Conditions: application post-emergence, 1000 g/Ha, evaluated after 13 days, scale 0-5. The protocol: as §1
For assay [4], the system named is Zea mays. The assay can be described thus: Post-emergence herbicidal activity, ZEAMX. Also noted: key: 5=total damage to plant; 0=no damage to plant. Particulars: application post-emergence, 1000 g/Ha, evaluated after 13 days, scale 0-5. The protocol:
as §1

For assay [5], the system named is Alopecurus myosuroides. Briefly: Pre-emergence herbicidal activity, ALOMY. Conditions: application pre-emergence, 1000 g/Ha, evaluated after 13 days, scale 0-5. The protocol: as §1, with “After” for “After 8 days”, “for one day (pre-emergence)” for “(post-emergence)”
Assay [6] has as its system Setaria faberi. The assay can be described thus: Pre-emergence herbicidal activity, SETFA. Particulars: application pre-emergence, 1000 g/Ha, evaluated after 13 days, scale 0-5. The protocol:
as §1, with “After” for “After 8 days”, “for one day (pre-emergence)” for “(post-emergence)”

For assay [7], the system named is Amaranthus retroflexus. The assay can be described thus: Pre-emergence herbicidal activity, AMARE. Also noted: key: 5=total damage to plant; 0=no damage to plant. Particulars: application pre-emergence, 1000 g/Ha, evaluated after 13 days, scale 0-5. The protocol: as §1, with “After” for “After 8 days”, “for one day (pre-emergence)” for “(post-emergence)”
Assay [8] concerns Abutilon theophrasti. The assay can be described thus: Pre-emergence herbicidal activity, ABUTH. Particulars: application pre-emergence, 1000 g/Ha, evaluated after 13 days, scale 0-5. Details: key: 5=total damage to plant; 0=no damage to plant. The protocol: as §1, with “After” for “After 8 days”, “for one day (pre-emergence)” for “(post-emergence)”
The subject of assay [9] is Echinochloa crus-galli. The assay can be described thus: Post-emergence herbicidal activity, ECHCG. Also noted: key: 5=total damage to plant; 0=no damage to plant. Particulars: application post-emergence, 1000 g/Ha, evaluated after 13 days, scale 0-5. The protocol: as §1
Assay [10] has as its system Zea mays. Briefly: Pre-emergence herbicidal activity, ZEAMX. Conditions: application pre-emergence, 1000 g/Ha, evaluated after 13 days, scale 0-5. The protocol:
as §1, with “After” for “After 8 days”, “for one day (pre-emergence)” for “(post-emergence)”

Assay [11] concerns Amaranthus retroflexus. Briefly: Post-emergence herbicidal activity, AMARE. Particulars: application post-emergence, 1000 g/Ha, evaluated after 13 days, scale 0-5. Also noted: key: 5=total damage to plant; 0=no damage to plant. The protocol:
as §1

For assay [12], the system named is Setaria faberi. The assay can be described thus: Post-emergence herbicidal activity, SETFA. Also noted: key: 5=total damage to plant; 0=no damage to plant. Conditions: application post-emergence, 1000 g/Ha, evaluated after 13 days, scale 0-5. The protocol: as §1

Consider `CCOC1C(O)N(c2cc(C(F)(F)F)n(C)n2)C(=O)N1C` (stereo not drawn) [Compound A8, 5-ethoxy-4-hydroxy-1-methyl-3-[1-methyl-5-(trifluoromethyl)pyrazol-3-yl]imidazolidin-2-one], for which the ABUTH damage score in the assay on Abutilon theophrasti [1] and in the assay on Abutilon theophrasti [8] was 5 throughout. For the same compound, the ECHCG damage score in the assay with Echinochloa crus-galli [2] and with Echinochloa crus-galli [9] was 5 throughout. The ALOMY damage score was found to be 5 with Alopecurus myosuroides [3] and 4 in the assay with Alopecurus myosuroides [5]. Also, the results for the ZEAMX damage score in the assay on Zea mays [4] and with Zea mays [10] were 4 and 2, respectively. For the same compound, the values for the SETFA damage score in the assay with Setaria faberi [6] and with Setaria faberi [12] were 4 and 5, respectively. The AMARE damage score in the assay on Amaranthus retroflexus [7] and with Amaranthus retroflexus [11] was 5 each time.

Consider `CCOC1C(O)N(c2cc(C(C)(C)C)n(C)n2)C(=O)N1C` (stereo not drawn) [Compound A10], for which the ABUTH damage score in the assay on Abutilon theophrasti [1] and with Abutilon theophrasti [8] was 5 in each case. Also, the ECHCG damage score with Echinochloa crus-galli [2] and in the assay on Echinochloa crus-galli [9] was 5 each time. The values for the ALOMY damage score with Alopecurus myosuroides [3] and with Alopecurus myosuroides [5] were 5 and 4, respectively. For the same compound, the ZEAMX damage score was 5 in the assay with Zea mays [4] and 2 in the assay with Zea mays [10]. Further, the SETFA damage score amounted to 4 with Setaria faberi [6] and 5 in the assay on Setaria faberi [12]. The AMARE damage score in the assay on Amaranthus retroflexus [7] and in the assay with Amaranthus retroflexus [11] was 5 in each case.

Take `CN1C(=O)N(c2cc(C(F)(F)F)n(C)n2)C(O)C1O` (stereo not drawn) [Compound A12, 4,5-dihydroxy-1-methyl-3-[1-methyl-5-(trifluoromethyl)pyrazol-3-yl]imidazolidin-2-one]: the ABUTH damage score with Abutilon theophrasti [1] and in the assay with Abutilon theophrasti [8] was 5 throughout. In addition, the values for the ECHCG damage score in the assay on Echinochloa crus-galli [2] and with Echinochloa crus-galli [9] were 4 and 5, respectively. Also, the ALOMY damage score is recorded as 5 in the assay with Alopecurus myosuroides [3] and 4 in the assay with Alopecurus myosuroides [5]. Further, the ZEAMX damage score is on record as 4 in the assay with Zea mays [4] and 1 in the assay with Zea mays [10]. Also, the SETFA damage score in the assay with Setaria faberi [6] came to 4; in the assay on Setaria faberi [12], 5. The AMARE damage score in the assay with Amaranthus retroflexus [7] and in the assay on Amaranthus retroflexus [11] was 5 in each case.

With `CN1CC(O)N(c2cc(C(F)(F)F)n(C)n2)C1=O` (stereo not drawn) [Compound A13], the ABUTH damage score in the assay with Abutilon theophrasti [1] and in the assay on Abutilon theophrasti [8] was 5 throughout. Moreover, the ECHCG damage score in the assay with Echinochloa crus-galli [2] and with Echinochloa crus-galli [9] was 5 throughout. For the same compound, the values for the ALOMY damage score in the assay with Alopecurus myosuroides [3] and in the assay with Alopecurus myosuroides [5] were 5 and 4, respectively. Besides, the ZEAMX damage score was determined as 4 in the assay with Zea mays [4] and 2 in the assay with Zea mays [10]. Also, the SETFA damage score in the assay with Setaria faberi [6] was found to be 4; in the assay with Setaria faberi [12] it was 5. In addition, the AMARE damage score in the assay with Amaranthus retroflexus [7] and in the assay with Amaranthus retroflexus [11] was 5 each time.

Consider `CN1CC(O)N(c2cc3n(n2)CCC3(C)C)C1=O` (stereo not drawn) [Compound A14], for which the ABUTH damage score in the assay on Abutilon theophrasti [1] and in the assay on Abutilon theophrasti [8] was 5 in each case. In addition, the results for the ECHCG damage score in the assay on Echinochloa crus-galli [2] and with Echinochloa crus-galli [9] were 4 and 5, respectively. Moreover, the ALOMY damage score in the assay on Alopecurus myosuroides [3] was found to be 5; in the assay with Alopecurus myosuroides [5], 4. The ZEAMX damage score with Zea mays [4] was found to be 5; in the assay on Zea mays [10], 3. Also, the SETFA damage score is 4 with Setaria faberi [6] and 5 in the assay on Setaria faberi [12]. In addition, the AMARE damage score in the assay with Amaranthus retroflexus [7] and in the assay on Amaranthus retroflexus [11] was 5 each time.

Consider `C[C@@H]1C(O)N(c2cc(C(F)(F)F)n(C)n2)C(=O)N1C` (stereo partly drawn) [Compound A15, (5R)-4-hydroxy-1,5-dimethyl-3-[1-methyl-5-(trifluoromethyl)pyrazol-3-yl]imidazolidin-2-one], for which the ABUTH damage score in the assay on Abutilon theophrasti [1] and in the assay with Abutilon theophrasti [8] was 5 throughout. Further, the ECHCG damage score in the assay with Echinochloa crus-galli [2] stood at 2; with Echinochloa crus-galli [9], 5. In addition, the ALOMY damage score is recorded as 5 in the assay on Alopecurus myosuroides [3] and 2 in the assay with Alopecurus myosuroides [5]. The ZEAMX damage score with Zea mays [4] is 5; in the assay on Zea mays [10], 1. For the same compound, the values for the SETFA damage score in the assay on Setaria faberi [6] and with Setaria faberi [12] were 3 and 5, respectively. Besides, the AMARE damage score in the assay on Amaranthus retroflexus [7] and in the assay with Amaranthus retroflexus [11] was 5 in each case.

Take `CC1NC(=O)N(c2cc(C(C)(C)C)n(C)n2)C1O` (stereo not drawn) [Compound A17]: the ABUTH damage score in the assay with Abutilon theophrasti [1] and in the assay with Abutilon theophrasti [8] was 4 throughout. Also, the ECHCG damage score in the assay on Echinochloa crus-galli [2] was 4; in the assay with Echinochloa crus-galli [9] it was 3. Also, the ALOMY damage score in the assay with Alopecurus myosuroides [3] and in the assay on Alopecurus myosuroides [5] was 3 in each case. The ZEAMX damage score was found to be 0 in the assay on Zea mays [4] and 1 in the assay with Zea mays [10]. In addition, the results for the SETFA damage score in the assay with Setaria faberi [6] and in the assay with Setaria faberi [12] were 3 and 2, respectively. Further, the AMARE damage score in the assay on Amaranthus retroflexus [7] is 5; in the assay on Amaranthus retroflexus [11] it was 4.
